Patent publication US20240226343A1, “NEUROPEPTIDE Y1 RECEPTOR (NPY1R) TARGETED THERAPEUTICS AND USES THEREOF” (RADIONETICS ONCOLOGY, INC., priority 2022, published 2024)
Like-named read-outs stand apart in the source and are kept apart here.

Molecular target: T1, hNPY1R (Homo sapiens, UniProt P25929)
T1 construct: SK-N-MC cells endogenously expressing the NPY1R receptor; endogenous in cells; host or cells: SK-N-MC cells (crude membrane fractions)
T1 sequence (P25929 1-384): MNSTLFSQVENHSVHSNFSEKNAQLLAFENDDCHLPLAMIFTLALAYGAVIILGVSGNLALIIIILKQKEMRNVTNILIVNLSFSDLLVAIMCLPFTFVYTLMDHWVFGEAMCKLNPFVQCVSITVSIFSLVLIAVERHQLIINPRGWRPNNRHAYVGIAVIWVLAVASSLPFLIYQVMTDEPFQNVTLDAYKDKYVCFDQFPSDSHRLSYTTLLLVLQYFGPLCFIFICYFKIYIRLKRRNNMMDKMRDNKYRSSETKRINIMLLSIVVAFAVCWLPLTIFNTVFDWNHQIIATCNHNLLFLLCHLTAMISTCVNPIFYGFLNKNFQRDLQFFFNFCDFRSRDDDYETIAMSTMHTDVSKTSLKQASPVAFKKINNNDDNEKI
Assay: NPY1R binding assay: SK-N-MC membranes, [125I]-Peptide YY (human) competition
Conditions: SK-N-MC membranes
Experimental: Crude membrane fractions are prepared from SK-N-MC cells endogenously expressing the NPY1R receptor. The cells are grown to 85-100% confluence on standard tissue culture dishes in Eagle's Minimum Essential Medium supplemented with 10% dialyzed FBS. To prepare membranes, cells are scraped and collected in 1× Dulbecco's phosphate buffered saline and then pelleted at 1000 RPM's. The cell pellet is reconstituted in membrane preparation buffer (20 mM HEPES, 6 mM MgCl2 and 1 mM EGTA, protease inhibitor tablets, pH 7.4) and placed in a cell disruption vessel at 1000 PSI for 30 minutes on ice. The pressurized contents are then released and spun down at 1000 RPMs and the supernatant is collected and further centrifuged at 15,000 RPMs to pellet the membranes. The membrane pellet is resuspended in membrane preparation buffer, snap frozen and stored at −80° C. for later use.
[…] Assay contents are then filtered through unifilter GF/C microplates and washed with 9×400 μl of cold wash buffer (25 mM HEPES, 5 mM MgCl2, 1 mM CaCl2), 500 mM NaCl, 0.1% Tween-20, pH 7.4). Assay plates are read using a Top Count NXT and Ki values for compounds are determined using a GraphPad Prism 6 non-linear regression analysis.

[1] = data obtained after 120 minutes at rt, [125I]-Peptide YY, read-out: hNPY.R binding Ki* ††
[2] = data obtained after 60 minutes at 37° C., [125I]-Peptide YY 0.05 nM, read-out: hNPY1R binding Ki* †

For CCC(=O)NCCNC(=O)/N=C(/N)NCCC[C@@H](NC(=O)C(c1ccccc1)c1ccc(NCCCNC(=O)CN(C)C(=O)CN(C)C(=O)CN(C)C(=O)CN2CCN(CC(=O)O)CCN(CC(=O)O)CCN(CC(=O)O)CC2)cc1)C(=O)NCc1ccc(O)cc1 (single isomer, unassigned) [Compound 159], which Ki [1] is on record?
The Ki was under 10 nM.

Which Ki [1] does the source give for CCC(=O)NCCNC(=O)/N=C(/N)NCCC[C@@H](NC(=O)C(c1ccccc1)c1cccc(OCCCCNC(=O)NOCCNC(=O)CN2CCN(CC(=O)O)CCN(CC(=O)O)CCN(CC(=O)O)CC2)c1)C(=O)NCc1c(F)cc(O)cc1F (single isomer, unassigned) [Compound 163B] here?
Its Ki is under 10 nM.

How did the Ki [1] turn out when CCCCCCCCCCCCCCCC(=O)N[C@@H](CCC(=O)N[C@@H](CCCCNC(=O)CN1CCN(CC(=O)O)CCN(CC(=O)O)CCN(CC(=O)O)CC1)C(=O)NCCCCOc1cccc(C(C(=O)N[C@H](CCCN/C(N)=N\C(=O)NCCNC(=O)CC)C(=O)NCc2ccc(O)cc2)c2ccccc2)c1)C(=O)O (stereo partly drawn) [Compound 122, (2S)-4-{[(1S)-1-({4-[3-({[(1R)-4-{[(Z)-amino({[(2-propanamidoethyl)-carbamoyl]imino})methyl]amino}-1-{[(4-hydroxyphenyl)methyl]carbamoyl}butyl]-carbamoyl}(phenyl)methyl)phenoxy]butyl}carbamoyl)-5-{2-[4,7,10-tris(carboxymethyl)-1,4,7,10-tetraazacyclododecan-1-yl]acetamido}pentyl]carbamoyl}-2-hexadecanamidobutanoic acid] was run?
Its Ki is under 10 nM.

For CCC(=O)NCCNC(=O)/N=C(/N)NCCC[C@@H](NC(=O)C(c1ccccc1)c1cccc(OCCCCNC(=O)NCCONC(=O)CN2CCN(CC(=O)O)CCN(CC(=O)O)CCN(CC(=O)O)CC2)c1)C(=O)NCc1c(F)cc(O)cc1F (single isomer, unassigned) [Compound 168], which Ki [1] is on record?
The Ki was under 10 nM.

For CCC(=O)NCCNC(=O)/N=C(/N)NCCC[C@@H](NC(=O)C(c1ccccc1)c1cccc(OCCCCNC(=O)CCC(NC(=O)CN2CCN(CC(=O)O)CCN(CC(=O)O)CCN(CC(=O)O)CC2)C(=O)O)c1)C(=O)NCc1ccc(O)cc1 (single isomer, unassigned) [Compound 110A], which Ki [2] is on record?
The Ki was 10 to 100 nM.

How did the Ki [1] turn out when CCC(=O)NCCNC(=O)/N=C(/N)NCCC[C@@H](NC(=O)C(c1ccccc1)c1cccc(OCCCCNC(=O)[C@@H](Cc2ccc(-c3ccccc3)cc2)NC(=O)CCNC(=O)CN2CCN(CC(=O)O)CCN(CC(=O)O)CCN(CC(=O)O)CC2)c1)C(=O)NCc1ccc(O)cc1 (stereo partly drawn) [Compound 149, 2,2′,2″-(10-(2-((3-(((2R)-3-([1,1′-biphenyl]-4-yl)-1-((4-(3-((4R,Z)-9-amino-4-((4-hydroxybenzyl)carbamoyl)-2,11,16-trioxo-1-phenyl-3,8,10,12,15-pentaazaoctadec-9-en-1-yl)phenoxy)butyl)amino)-1-oxopropan-2-yl)amino)-3-oxopropyl)amino)-2-oxoethyl)-1,4,7,10-tetraazacyclododecane-1,4,7-triyl)triacetic acid] was run?
The Ki was under 10 nM.

For CCC(=O)NCCNC(=O)/N=C(/N)NCCC[C@@H](NC(=O)C(c1ccccc1)c1ccc(NCCCNc2c(NCCNC(=O)[C@@H](CN)NC(=O)CN3CCN(CC(=O)O)CCN(CC(=O)O)CCN(CC(=O)O)CC3)c(=O)c2=O)cc1)C(=O)NCc1ccc(O)cc1 (single isomer, unassigned) [Compound 137A], which Ki [1] is on record?
Its Ki is under 10 nM.

With CCC(=O)NCCNC(=O)/N=C(/N)NCCC[C@@H](NC(=O)C(c1ccccc1)c1cccc(OCCOCCOCCOCCOCCNC(=O)CN2CCN(CC(=O)O)CCN(CC(=O)O)CCN(CC(=O)O)CC2)c1)C(=O)NCc1ccc(O)cc1 (single isomer, unassigned) [Compound 101A] as the compound, how does the Ki [2] read?
Its Ki is under 10 nM.

For CCC(=O)NCCNC(=O)/N=C(/N)NCCC[C@@H](NC(=O)C(c1ccccc1)c1cccc(OCCCCNC(=O)[C@H](N)CCCCNC(=O)CN2CCN(CC(=O)O)CCN(CC(=O)O)CCN(CC(=O)O)CC2)c1)C(=O)NCc1ccc(O)cc1 (single isomer, unassigned) [Compound 109A], which Ki [2] is on record?
Its Ki is under 10 nM.

How did the Ki [1] turn out when CCC(=O)NCCNC(=O)/N=C(/N)NCCC[C@@H](NC(=O)C(c1ccccc1)c1cccc(OCCCCNC(=O)[C@@H](CCCNC(=N)N)NC(=O)CCNC(=O)CN2CCN(CC(=O)O)CCN(CC(=O)O)CCN(CC(=O)O)CC2)c1)C(=O)NCc1ccc(O)cc1 (single isomer, unassigned) [Compound 141A] was run?
Its Ki is under 10 nM.

CCC(=O)NCCNC(=O)/N=C(/N)NCCC[C@@H](NC(=O)C(c1ccccc1)c1cccc(OCCCCNC(=O)CCCCCNC(=O)CN2CCN(CC(=O)O)CCN(CC(=O)O)CCN(CC(=O)O)CC2)c1)C(=O)NCc1ccc(O)cc1 (single isomer, unassigned) [Compound 140A] was tested. Which Ki [1] did it give?
The Ki was under 10 nM.

CCC(=O)NCCNC(=O)/N=C(/N)NCCC[C@@H](NC(=O)C(c1ccccc1)c1cccc(OCCCCNC(=O)C[C@H]2NC(=O)[C@@H](CCCNC(=O)CN3CCN(CC(=O)O)CCN(CC(=O)O)CCN(CC(=O)O)CC3)NC2=O)c1)C(=O)NCc1c(F)cc(O)cc1F (single isomer, unassigned) [Compound 164B] was tested. Which Ki [1] did it give?
The Ki was under 10 nM.

With CCC(=O)NCCNC(=O)/N=C(/N)NCCC[C@@H](NC(=O)C(c1ccccc1)c1cccc(NCCCNc2c(NCCNC(=O)CN3CCN(CC(=O)O)CCN(CC(=O)O)CCN(CC(=O)O)CC3)c(=O)c2=O)c1)C(=O)NCc1ccc(O)cc1 (single isomer, unassigned) [Compound 120A] as the compound, how does the Ki [1] read?
Its Ki is under 10 nM.

CCC(=O)NCCNC(=O)/N=C(/N)NCCC[C@@H](NC(=O)C(c1ccccc1)c1cccc(OCCCCNC(=O)CCCCCNC(=O)CN2CCN(CC(=O)O)CCN(CC(=O)O)CCN(CC(=O)O)CC2)c1)C(=O)NCc1ccc(O)cc1 (single isomer, unassigned) [Compound 140B] was tested. Which Ki [1] did it give?
The Ki was under 10 nM.

With CCC(=O)NCCNC(=O)/N=C(/N)NCCC[C@@H](NC(=O)C(c1ccccc1)c1ccc(NCCCNC(=O)CN2CCC(NC(=O)CN3CCN(CC(=O)O)CCN(CC(=O)O)CCN(CC(=O)O)CC3)CC2)cc1)C(=O)NCc1ccc(O)cc1 (single isomer, unassigned) [Compound 133B] as the compound, how does the Ki [1] read?
Its Ki is under 10 nM.

CCC(=O)NCCNC(=O)/N=C(/N)NCCC[C@@H](NC(=O)C(c1ccccc1)c1cccc(OCCCCNc2c(NCCNC(=O)[C@@H](CN)NC(=O)CN3CCN(CC(=O)O)CCN(CC(=O)O)CCN(CC(=O)O)CC3)c(=O)c2=O)c1)C(=O)NCc1ccc(O)cc1 (stereo in doubt) [Compound 115B-In, Indium (III) 2,2′,2″-(10-(2-(((R)-3-amino-1-((2-((2-((4-(3-((R,Z)-9-amino-4-((4-hydroxybenzyl)carbamoyl)-2,11,16-trioxo-1-phenyl-3,8,10,12,15-pentaazaoctadec-9-en-1-yl)phenoxy)butyl)amino)-3,4-dioxocyclobut-1-en-1-yl)amino)ethyl)amino)-1-oxopropan-2-yl)amino)-2-oxoethyl)-1,4,7,10-tetraaza-cyclododecane-1,4,7-triyl)triacetate] was tested. Which Ki [1] did it give?
Its Ki is under 10 nM.

Which Ki [2] does the source give for CCC(=O)NCCNC(=O)/N=C(/N)NCCC[C@@H](NC(=O)C(c1ccccc1)c1cccc(OCCOCCOCCOCCOCCNC(=O)CN2CCN(CC(=O)O)CCN(CC(=O)O)CCN(CC(=O)O)CC2)c1)C(=O)NCc1ccc(CNC(N)=O)cc1 (single isomer, unassigned) [Compound 114A] here?
Its Ki is 10 to 100 nM.

For CCC(=O)NCCNC(=O)/N=C(/N)NCCC[C@@H](NC(=O)C(c1ccccc1)c1cccc(OCCCCNC(=O)[C@H](N)CCCCNC(=O)c2ccc(CNC(=O)CN3CCN(CC(=O)O)CCN(CC(=O)O)CCN(CC(=O)O)CC3)cc2)c1)C(=O)NCc1ccc(O)cc1 (single isomer, unassigned) [Compound 142B], which Ki [1] is on record?
The Ki was under 10 nM.

For CCC(=O)NCCNC(=O)/N=C(/N)NCCC[C@@H](NC(=O)C(c1ccccc1)c1ccc(NCCCNC(=O)[C@H](N)CCCNC(=O)[C@@H](Cc2ccc(-c3ccccc3)cc2)NC(=O)CN2CCN(CC(=O)O)CCN(CC(=O)O)CCN(CC(=O)O)CC2)cc1)C(=O)NCc1ccc(O)cc1 (single isomer, unassigned) [Compound 134A], which Ki [1] is on record?
The Ki was under 10 nM.

CCC(=O)NCCNC(=O)/N=C(/N)NCCC[C@@H](NC(=O)C(c1ccccc1)c1cccc(OCCCCNC(=O)CONC(=O)CCNC(=O)CN2CCN(CC(=O)O)CCN(CC(=O)O)CCN(CC(=O)O)CC2)c1)C(=O)NCc1c(F)cc(O)cc1F (single isomer, unassigned) [Compound 167] was tested. Which Ki [1] did it give?
Its Ki is under 10 nM.

Which Ki [1] does the source give for CCC(=O)NCCNC(=O)/N=C(/N)NCCC[C@@H](NC(=O)C(c1ccccc1)c1cccc(OCCCCNC(=O)[C@@H](CCCN)NC(=O)CCNC(=O)CN2CCN(CC(=O)O)CCN(CC(=O)O)CCN(CC(=O)O)CC2)c1)C(=O)NCc1ccc(O)cc1 (single isomer, unassigned) [Compound 147A] here?
The Ki was under 10 nM.

For CCC(=O)NCCNC(=O)/N=C(/N)NCCC[C@@H](NC(=O)C(c1ccccc1)c1cccc(OCCCCNC(=O)CCCCCNC(=O)CN2CCN(CC(=O)O)CCN(CC(=O)O)CCN(CC(=O)O)CC2)c1)C(=O)NCc1c(F)cc(O)cc1F (single isomer, unassigned) [Compound 161B], which Ki [1] is on record?
The Ki was under 10 nM.
